Measurements as given in PMC9570898, “Comparing Variants of the Cell-Penetrating Peptide sC18 to Design Peptide-Drug Conjugates” (Molecules, 2022).
Residues, ends and D or L forms follow the SMILES beside them. No end group written: not given here. *: point of attachment. X1 = COc1cccc2c1C(=O)c1c(O)c3c(c(O)c1C2=O)C[C@@](O)(C(=O)CO)C[C@@H]3O[C@H]1C[C@H](NC(=O)CCN2C(=O)CC(*)C2=O)[C@H](O)[C@H](C)O1

How the values were obtained:
HFF-1 cells = assay: Cytotoxicity (resazurin) assay in HFF-1 cells; type: cell-based, human; settings: 24 h treatment, different concentrations, lowest viability reached
HeLa cells [1] = assay: Cytotoxicity (resazurin) assay in HeLa cells; settings: 24 h; for EC50: 37 °C, 2.5-70 µM, Dox data not shown
Description: For cell viability assay, cells were (15,000 HeLa, 17,000 MCF-7 and 12,000 HFF-1 cells per well) seeded onto a 96-well plate and grown to 80–90% confluency. Cells were incubated with several peptide concentrations in a serum-free growth medium for 24 h under standard growth conditions. For the positive control, cells were treated with 70% EtOH for 7 min. After washing with DPBS, resazurin solution (10% in serum-free media, v/v) was incubated with the cells for 1 h under standard growth conditions. The cell viability was determined relative to untreated cells by measurement of the resorufin product at 595 nm (λex = 550 nm) on a Tecan infinite M200 plate reader (Tecan Group AG, Männedorf, Switzerland).
Figure 2 (A,B): Cytotoxicity profiles of the peptides in HeLa and HEK-293 cells. Cells were cultured and incubated at pH 7.4 for 24 h with different concentrations of peptide solutions. Untreated cells served as negative control; cells treated with 70% ethanol as positive control. Values from the positive control were subtracted from all data, and the untreated cells were set to 100%; assays were performed with n = 3 in triplicate. (C): Flow cytometry analysis of HeLa or HEK-293 cells after incubating 1 and 10 µM peptide solutions for 30 min at 37 °C; assays were conducted in triplicate n = 3. (D): Confocal laser scanning microscopy analysis of 10 µM CF-labeled peptides after 30 min of incubation in HeLa cells. Green: CF-labeled peptides; blue: Hoechst 33342 nuclear stain; scale bar is 10 µm.
Figure 5 (A): Cytotoxicity assay using HFF-1 cells. Different PDC concentrations were incubated with the cells for 24 h at 37 °C and a resazurin assay was conducted. (B): Dose-response curves for peptide drug conjugates were obtained using the resazurin assay. For this, HeLa cells were treated with various conjugate concentrations (2.5–70 µM) for 24 h at 37 °C. (C): Quantification of PDC internalization in HeLa cells; 10 µM PDC solutions were incubated with cells for 30 min at 37 °C and cells were inspected using a flow cytometer; assays were conducted in triplicate n = 3.

HeLa cells [2] = assay: Fluorescence microscopy of intracellular distribution in HeLa cells; type: cell-based, human; settings: 30 min; for intracellular distribution of PDC: 5 µM conjugate, 37 °C, fluorescence microscopy; for intracellular accumulation / uptake pattern: 10 µM CF-labeled peptide, confocal fluorescence microscopy
Description: Cells were seeded into 8-well plates (HeLa cells 35,000 and HFF-1 25,000 cells per well, respectively) and grown to 80–90% confluency. Cells were treated with 10 μM CF- or dox-labeled peptides in a serum-free medium for 30 min at 37 °C. Ten minutes prior to the end of the incubation time, nuclei were stained with Hoechst33342. The peptide solution was removed, and cells were washed five times with PBS and covered with fresh medium including FBS. Microscopic analysis was performed using an inverse confocal TCS SP8 microscope (Leica Microsystems, Wetzlar, Germany), equipped with a 63× oil-immersion objective. Images were recorded with LAS X software (LAS_X_Core_3.7.6_25997, Leica Microsystems, Wetzlar, Germany). For the GUV analysis and the uptake of the peptide-drug conjugates the Keyence fluorescence tabletop microscope BZ-X800E (Keyence, Osaka, Japan), with a 60× oil immersion lens was used. Images were recorded with Keyence software (BZ-800X_Analyzer 1.1.1.8, Keyence, Osaka: Japan) and evaluated with Fiji.
Figure 6 Fluorescence microscope analysis of 5 µM conjugates after 30 min of incubation at 37 °C in HeLa and HFF-1 cells. Red: peptides coupled to red fluorophore Doxorubicin; blue: Hoechst 33342 nuclear stain; BF: brightfield to identify living cells; scale bar is 20 µm.

HeLa cells [3] = assay: Cellular uptake by flow cytometry in HeLa cells; type: cell-based, human; settings: 30 min; for cellular uptake: 1 and 10 µM CF-labeled peptide, 37 °C, serum-free medium
Description: (§1) Monolayer cellular uptake was quantified using flow cytometry. Cells were seeded onto a 24-well plate (HeLa: 90,000, HEK293: 100,000 and MCF-7 130,000 cells per well) and grown to 80–90% confluency. Then, cells were incubated with the labeled peptides/conjugates in a serum-free medium at 37 °C for various incubation times, and subsequently washed twice with PBS and detached with indicator-free trypsin resuspended in an indicator-free serum-containing medium. The cell suspension was transferred into a 96-well FACS plate and fluorescence was then measured by a Guava easyCyte flow cytometer (Merck, Darmstadt, Germany).The blue laser was used for all measurements, FSC (1137–1538), SSC (3020–4086), Grn-B (647–875) and Red-B (694–939). Cellular autofluorescence of untreated control cells was subtracted.

MCF-7 cells = assay: Cell viability (resazurin) assay in MCF-7 cells at pH 7.4 or 6.8; type: cell-based, human; settings: MCF-7 cells cultivated at pH 7.4 or 6.8, 24 h, various concentrations, triplicate n = 3
Description: For pH-dependent studies, the cells were cultivated and incubated at pH 6.8 or 7.4, respectively.
Figure 1 (A,B): Cell-viability assays using MCF-7 cells. Cells were cultivated at pH 7.4 or pH 6.8, respectively, for 24 h using different concentrations of peptide solutions. […] (C): Cellular uptake of histidine peptides in MCF-7 cells.

HEK293 cells = assay: Cellular uptake by flow cytometry in HEK293 cells; type: cell-based, human; settings: 1 and 10 µM CF-labeled peptide, 30 min, 37 °C, serum-free medium
Description: as §1

HEK-293 spheroids = assay: Flow cytometry of HEK-293 spheroids; type: cell-based, human; settings: 10 µM CF-labeled peptides, 30 min or 1 h
Description: For the preparation and seeding of spheroids, cells were washed and trypsinized as described above. Cells were transferred into a fresh 15 mL centrifuge tube and centrifuged for 5 min at 300× g and rt. The supernatant was removed carefully and the pellet was resuspended in an appropriate medium supplemented with FBS. Cells were counted and a cell mixture was prepared, which would be sufficient for 100 drops (3 mL). Within this mixture a total amount of 1.5 × 10^6 cells (HEK-293 and HeLa cells) and 20% (v/v) methylcellulose (1.2 mg/mL) were required. The missing volume was filled up with an appropriate medium containing FBS; 30 μL drops were pipetted into the inverted lid of a petri dish (15,000 cells per drop), the bottom was covered with PBS and spheroids were grown in hanging drops for two or three days at 37 °C and 5% CO2, respectively.
For flow cytometry studies with tumor spheroids, the spheroids were prepared and grown as described above (4.7). […] After the spheroids started to fall apart, 850 μL of medium with FBS (indicator free) was added and the spheroids were resuspended to generate a homogenous cell suspension; 200 μL of each sample were transferred into a fresh round-bottom 96-well plate and analyzed on a Guava® easyCyte flow cytometer (Merck, Darmstadt, Germany). […]

[4] = triplicate n = 3, listed as sC18^ΔE

COc1cccc2c1C(=O)c1c(O)c3c(c(O)c1C2=O)C[C@@](O)(C(=O)CO)C[C@@H]3O[C@H]1C[C@H](N)[C@H](O)[C@H](C)O1.Cl [Dox, doxorubicin hydrochloride, reference compound]
cell viability (HFF-1 cells): 72%
EC50 (HeLa cells [1]; resazurin assay): 6.78 µM

CC[C@H](C)[C@H](NC(=O)[C@H](CCCCN)NC(=O)[C@H](CC(N)=O)NC(=O)[C@H](CCCNC(=N)N)NC(=O)[C@H](Cc1ccccc1)NC(=O)[C@H](CCCCN)NC(=O)[C@H](CCCNC(=N)N)NC(=O)[C@H](CC(C)C)NC(=O)[C@H](CCCNC(=N)N)NC(=O)[C@H](CCCCN)NC(=O)[C@H](CCCNC(=N)N)NC(=O)[C@H](CC(C)C)NC(=O)CNC(=O)[C@@H](N)CSC1CC(=O)N(CCC(=O)N[C@H]2C[C@H](O[C@H]3C[C@](O)(C(=O)CO)Cc4c(O)c5c(c(O)c43)C(=O)c3c(OC)cccc3C5=O)O[C@@H](C)[C@H]2O)C1=O)C(=O)N[C@@H](CCCCN)C(=O)N[C@@H](CCC(=O)O)C(=O)N[C@@H](CCCCN)C(N)=O (stereo partly drawn) [PDC-1] (H-C(X1)GLRKRLRKFRNKIKEK-NH2)
intracellular distribution of PDC (HeLa cells [2]): more fluorescence was also measured within the nuclei
EC50 (HeLa cells [1]; resazurin assay): 15.3 µM

CC[C@H](C)[C@H](NC(=O)[C@H](CCCCN)NC(=O)[C@H](CC(N)=O)NC(=O)[C@H](CCCNC(=N)N)NC(=O)[C@H](Cc1ccccc1)NC(=O)[C@H](CCCCN)NC(=O)[C@H](CCCNC(=N)N)NC(=O)[C@H](CC(C)C)NC(=O)[C@H](CCCNC(=N)N)NC(=O)[C@H](CCCCN)NC(=O)[C@H](CCCNC(=N)N)NC(=O)[C@H](CC(C)C)NC(=O)CNC(=O)[C@@H](N)CSC1CC(=O)N(CCC(=O)N[C@H]2C[C@H](O[C@H]3C[C@](O)(C(=O)CO)Cc4c(O)c5c(c(O)c43)C(=O)c3c(OC)cccc3C5=O)O[C@@H](C)[C@H]2O)C1=O)C(=O)N[C@@H](CCCCN)C(=O)N[C@@H](CCCCN)C(N)=O (stereo partly drawn) [PDC-2] (H-C(X1)GLRKRLRKFRNKIKK-NH2)
intracellular distribution of PDC (HeLa cells [2]): clustering inside the cytosol
PDC internalization (HeLa cells [3]; 5 µM PDC (text; legend of Figure 5C: 10 µM), doxorubicin red fluorescence): enhanced compared to the other two
EC50 (HeLa cells [1]; resazurin assay): 14.5 µM

COc1cccc2c1C(=O)c1c(O)c3c(c(O)c1C2=O)C[C@@](O)(C(=O)CO)C[C@@H]3O[C@H]1C[C@H](NC(=O)CCN2C(=O)CC(SC[C@H](N)C(=O)NCC(=O)N[C@@H](CC(C)C)C(=O)N[C@@H](CCCNC(=N)N)C(=O)N[C@@H](CCCCN)C(=O)N[C@@H](CCCNC(=N)N)C(=O)N[C@@H](CC(C)C)C(=O)N[C@@H](CCCNC(=N)N)C(=O)N[C@@H](CCCCN)C(=O)N[C@@H](Cc3ccccc3)C(=O)N[C@@H](CCCNC(=N)N)C(=O)N[C@@H](CC(N)=O)C(=O)N[C@@H](CCCCN)C(N)=O)C2=O)[C@H](O)[C@H](C)O1 (stereo partly drawn) [PDC-3] (H-C(X1)GLRKRLRKFRNK-NH2)
EC50 (HeLa cells [1]; resazurin assay): 27 µM

GLRKRLRKFRNKIKEK-NH2 [sC18]
cytotoxicity (MCF-7 cells): slightly more toxic at higher concentrations
intracellular accumulation / uptake pattern (HeLa cells [2]): far lower compared to the other two novel peptides
intracellular accumulation / uptake pattern (HeLa cells [2]; listed as sC18^ΔE): accumulated in a dot-like manner within the cell interior and did not reach the nuclei
cellular uptake (HeLa cells [3]; triplicate n = 3): to a little extent
cellular uptake (HeLa cells [3]; [4]): highly significant and enhanced internalization
cellular uptake (HEK293 cells; triplicate n = 3): to a little extent
cellular uptake (HEK293 cells; [4]): highly significant and enhanced internalization
cell viability at 100 µM (HeLa cells [1]; concentration increased up to 100 µM, resazurin assay): ≥ 75%
concentration up to which no toxic effect was observed (HeLa cells [1]; pH 7.4, resazurin assay, n = 3 in triplicate): 50 µM
accumulation in spheroids (HEK-293 spheroids): most efficient variants
